Test results from patent US8420640B2, “Methods of treating amyloid disease using analogs of 1-(4-nitrophenyl) piperazine” (Treventis Corporation, priority 2008, dated 2013).
One block for each compound: values may come before it.

Key:
tau protein = tau protein aggregation over time (FIG. 1); assay type: biochemical; conditions: tau protein 4 μM; compound at 10 μM
alpha-synuclein [1] = target: T1, alpha-synuclein (Homo sapiens, UniProt P37840); test: alpha-synuclein aggregation inhibition (procedure similar to the ThT assay); assay type: biochemical; conditions: alpha-synuclein 6 μM
Aβ40 = target: T2, Aβ40 (Homo sapiens, UniProt P05067); test: ThT functional Aβ 1-40 aggregation assay; assay type: biochemical; conditions: for IC50: 20 μM Aβ, 20 mM Tris pH 7.4, 150 mM NaCl, 1% DMSO, 37° C.; for Ratio: potency with respect to the compound of Example 7, 1=potency of that compound
T2 construct: Compounds Showing Activity Observed in a ThT Functional Aβ 1-40 Aggregation Assay
T2 sequence (P05067 672-711 limits assumed): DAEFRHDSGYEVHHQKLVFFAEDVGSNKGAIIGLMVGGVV
Experimental: Aβ40 (1.0 mg) was pre-treated in a 1.5 mL microfuge tube with HFIP (1 mL) and sonicated for 20 min to disassemble any pre-formed Aβ aggregates. The HFIP was removed with a stream of argon and the Aβ dissolved in Tris base (5.8 mL, 20 mM, pH ˜10). The pH was adjusted to 7.4 with concentrated HCl (˜10 μL) and the solution filtered using a syringe filter (0.2 μm) before being used.
(§1) The kinetic ThT assay for Aβ aggregation is similar to that of Chalifour et al (Chalifour et al, 2003, J. Biol. Chem. 278:34874-81). Briefly, pre-treated Aβ40 (40 μM in 20 mM Tris, pH 7.4), was diluted with an equal volume of 8 μM ThT in Tris (20 mM, pH 7.4, 300 mM NaCl). Aliquots of Aβ/ThT (200 μL) were added to wells of a black polystyrene 96-well plate, followed by 2 μL of a compound in DMSO (variable concentration), or DMSO alone (controls). Incubations were performed in triplicate and were taken to contain 20 μM Aβ, various concentration of compound in 20 mM Tris, pH 7.4, 150 mM NaCl, 1% DMSO. Plates were covered with clear polystyrene lids and incubated at 37° C. in a Tecan Genios microplate reader. Fluorescence readings (λex=450 nm, λem=480 nm) were taken every 15 min., after first shaking at high intensity for 15 s and allowing to settle for 10 s before each reading. Active compounds attenuated the increase in fluorescence over time that occurred in controls. By repeating this procedure over several concentrations, a mean inhibitory concentration (IC50) was measured, as given in the table below. The column “A-syn” represents a similar procedure measuring inhibition of alpha-synuclein aggregation. The column “ratio” is a reproducible assessment of potency with respect to the compound of Example 7, in which 1=potency of that compound: […]

alpha-synuclein [2] = target: T1, alpha-synuclein; test: alpha-synuclein aggregation inhibition (procedure similar to the ThT assay); assay type: biochemical; conditions: inhibition of alpha-synuclein aggregation; read-out: A-syn (IC50/μM)
Experimental: as §1

amyloid = test: circular dichroism scans of amyloid with compound, T=0 to 168 hr (FIGS. 3-6); conditions: scans at T=0, 24 hr, 96 hr, 120 hr
beta-amyloid = beta-amyloid (Homo sapiens, UniProt P05067); conditions: cited from earlier work

- inhibition at 10 µM (alpha-synuclein [1]; compound at 10 μM): 50%
- inhibition of aggregation of alpha-synuclein (alpha-synuclein [1]; compound at 50 μM): full inhibition
Compound: CN1CCN(c2ccc([N+](=O)[O-])c(NCc3ccccc3)c2)CC1 [Example 4, N-benzyl-5-(4-methylpiperazin-1-yl)-2-nitrobenzenamine]
- ability to inhibit the aggregation of tau protein (tau protein): inhibit the aggregation of tau protein

Compound: CCCNc1cc(N2CCN(C(=O)c3ccccc3)CC2)ccc1[N+](=O)[O-] [Example 6, (4-(4-nitro-3-(propylamino)phenyl)piperazin-1-yl)(phenyl)methanone]
- ability to inhibit the aggregation of tau protein (tau protein): inhibit the aggregation of tau protein

- IC50 (Aβ40): 0.85 µM
- Ratio (Aβ40): 1
- IC50 (alpha-synuclein [2]): 6.34 µM
Compound: O=C(c1ccccc1)N1CCN(c2ccc([N+](=O)[O-])c(Nc3ccccc3)c2)CC1 [Example 7, (4-(4-nitro-3-(phenylamino)phenyl)piperazin-1-yl)(phenyl)methanone]
- ability to inhibit the aggregation of tau protein (tau protein): inhibit the aggregation of tau protein

Compound: CN(C)c1cc([N+](=O)[O-])ccc1N1CCN(C(=O)c2ccccc2)CC1 [Example 25, N,N-dimethyl-2-(4-benzoylpiperazin-1-yl)-5-nitrobenzenamine]
- circular dichroism: effect on amyloid structure (amyloid): keeps amyloid from entering an aggregated structure

Compound: CN(C)c1ccc(N2CCN(C(=O)c3ccccc3)CC2)cc1Nc1ccccc1 [Example 34, (4-(4-(dimethylamino)-3-(phenylamino)phenyl)piperazin-1-yl)(phenyl)methanone]
- circular dichroism: effect on amyloid structure (amyloid): keeps amyloid from entering an aggregated structure

Compound: O=C(O)c1cccc(-c2ccc([N+](=O)[O-])c(Nc3ccccc3)c2)c1 [Example 46, 4′-nitro-3′-(phenylamino) biphenyl-3-carboxylic acid]
- circular dichroism: effect on amyloid structure (amyloid): keeps amyloid from entering an aggregated structure

Compound: O=C(O)c1cccc(-c2ccc([N+](=O)[O-])c(NCc3ccccc3)c2)c1 [Example 54, 3′-(benzylamino)-4′-nitrophenyl-3-carboxylic acid]
- circular dichroism: effect on amyloid structure (amyloid): keeps amyloid from entering an aggregated structure

- IC50 (Aβ40): 3.5 µM
- Ratio (Aβ40): 11
- IC50 (alpha-synuclein [2]): ~7 µM
Compound: CN(C)c1ccc(N2CCN(C(=O)c3ccccc3)CC2)cc1Nc1ccccc1 [drawing 157]

Compound: Oc1ccc(C=Cc2cc(O)cc(O)c2)cc1 [resveratrol]
- effective concentration for inhibition of beta-amyloid aggregation (beta-amyloid): 5.6 µM
